In experiment [1] the test system is T47D (PI3Kα H1047R mutant) cells. Nature of the experiment: CellTiter-Glo 2.0 luminescent cell viability assay, 72 hours, T47D cells. In kind it is cell-based. A digest of the protocol: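 Cells seeded at 1000 per well overnight were dosed with a 10-concentration, 1:4 series starting at 10 µM and incubated ~72 h at 37° C. Viability was read by CellTiter-Glo 2.0 luminescence after 30 min at room temperature. IC50 came from four-parameter fits of percent vehicle control.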

The subject of experiment [2] is SKBR3 (PI3Kα wild type) cells. Nature of the experiment: CellTiter-Glo 2.0 luminescent cell viability assay, 72 hours, SKBR3 cells. The format is cell-based. The settings on record: Homo sapiens, SK-BR-3, 72 h. Put shortly:
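Viability measured via CTG luminescence following roughly 72 hours of compound exposure at 37° C. Dosing used a 10 um starting concentration diluted 1:4 over 10 points; percent-of-vehicle data fitted with a variable-slope four-parameter model for IC50.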

Where [3] appears, read: Homo sapiens, T47D, 72 h, T47D (PI3Kα H1047R mutant) cells, CellTiter-Glo, approximately 72 hours, read-out: T47D (H1047R mutant) Viability IC50.
The mark [4] stands for this setting: SKBR3 (PI3Kα wild type) cells, CellTiter-Glo, approximately 72 hours, read-out: SKBR3 (WT) Viability IC50.
Where [5] appears, read: T47D (PI3Kα H1047R mutant) cells, CellTiter-Glo, approximately 72 hours, read-out: T47D (H1047R mutant) Viability IC50.

Where two headings read alike, the source gives them in different places.

As for `Cc1cc([C@@H](C)Nc2ccccc2C(=O)O)c2nc(N[C@H](C)C3CC3)c(C)c(=O)n2c1` [Example 11-167, 2-(((R)-1-(2-(((R)-1-cyclopropylethyl)amino)-3,7-dimethyl-4-oxo-4H-pyrido[1,2-a]pyrimidin-9-yl)ethyl)amino)benzoic acid], the IC50 in experiment [1] (setting [3]) was 1180 nM; in experiment [2] (setting [4]), over 10000 nM.

On to `Cc1cc([C@@H](C)Nc2ccccc2C(=O)O)c2nc(N3C[C@H]4C[C@@H]3CN4c3ccc(C#N)cc3)c(C)c(=O)n2c1` [Example 11-176, 2-(((R)-1-(2-((1R,4R)-5-(4-cyanophenyl)-2,5-diazabicyclo[2.2.1]heptan-2-yl)-3,7-dimethyl-4-oxo-4H-pyrido[1,2-a]pyrimidin-9-yl)ethyl)amino)benzoic acid], for which the half-inhibitory concentration (IC50) is 722 nM in experiment [1] (setting [3]) and over 10000 nM in experiment [2] (setting [4]).

On to `Cc1cc([C@@H](C)Nc2ccccc2C(=O)O)c2nc(N3CC4CC3C4)c(C)c(=O)n2c1` [Example 11-127, (R)-2-((1-(2-(2-azabicyclo[2.1.1]hexan-2-yl)-3,7-dimethyl-4-oxo-4H-pyrido[1,2-a]pyrimidin-9-yl)ethyl)amino)benzoic acid], for which the values for the IC50 in experiment [1] (setting [3]) and in experiment [2] (setting [4]) were 323 nM and over 10000 nM, respectively.

Take `Cc1cc([C@@H](C)Nc2ccc(Cl)cc2C(=O)O)c2nc(N3Cc4ccccc4C3)c(C)c(=O)n2c1` [Example 11-280, (R)-5-chloro-2-((1-(2-(isoindolin-2-yl)-3,7-dimethyl-4-oxo-4H-pyrido[1,2-a]pyrimidin-9-yl)ethyl)amino)benzoic acid]: the figures for the IC50 in experiment [1] (setting [3]) and in experiment [2] (setting [4]) were 383 nM and over 10000 nM, respectively.

For the compound `Cc1cc([C@@H](C)Nc2ccccc2C(=O)O)c2nc(N3C4CCC3CC(F)(F)C4)c(C)c(=O)n2c1` [Example 11-189, 2-(((1R)-1-(2-(3,3-difluoro-8-azabicyclo[3.2.1]octan-8-yl)-3,7-dimethyl-4-oxo-4H-pyrido[1,2-a]pyrimidin-9-yl)ethyl)amino)benzoic acid], the half-maximal inhibitory concentration (IC50) was 261 nM in experiment [1] (setting [3]) and over 10000 nM in experiment [2] (setting [4]).

For the compound `Cc1cc(C(C)Nc2ccccc2C(=O)O)c2nc(Nc3cccc(C#N)c3)cc(=O)n2c1` (stereo not shown) [Example 11-339, 2-((1-(2-((3-cyanophenyl)amino)-7-methyl-4-oxo-4H-pyrido[1,2-a]pyrimidin-9-yl)ethyl)amino)benzoic acid], the IC50 in experiment [1] (setting [3]) and in experiment [2] (setting [4]) was over 10000 nM in each case.

Turning to `Cc1cc([C@@H](C)Nc2ccc(F)cc2C(=O)O)c2nc(N3Cc4ccccc4C3)c(C)c(=O)n2c1` [Example 11-366, (R)-5-fluoro-2-((1-(2-(isoindolin-2-yl)-3,7-dimethyl-4-oxo-4H-pyrido[1,2-a]pyrimidin-9-yl)ethyl)amino)benzoic acid], the IC50 in experiment [1] (setting [3]) came out at 144 nM; in experiment [2] (setting [4]), 9620 nM.

Take `Cc1cc([C@@H](C)Nc2ccccc2C(=O)O)c2nc(N3CCN(c4ccc(C#N)cc4)CC3C)c(C)c(=O)n2c1` (stereo partly drawn) [Example 11-269, 2-(((1R)-1-(2-(4-(4-cyanophenyl)-2-methylpiperazin-1-yl)-3,7-dimethyl-4-oxo-4H-pyrido[1,2-a]pyrimidin-9-yl)ethyl)amino)benzoic acid]: the IC50 is 110 nM in experiment [1] (setting [5]) and over 10000 nM in experiment [2] (setting [4]).

Regarding `Cc1cc([C@@H](C)Nc2ccccc2C(=O)O)c2nc(N3C[C@H]4C[C@@H]3C(F)(F)C4)c(C)c(=O)n2c1` [Example 11-228, 2-(((R)-1-(2-((1R,4S)-6,6-difluoro-2-azabicyclo[2.2.1]heptan-2-yl)-3,7-dimethyl-4-oxo-4H-pyrido[1,2-a]pyrimidin-9-yl)ethyl)amino)benzoic acid], the IC50 is 155 nM in experiment [1] (setting [3]) and over 10000 nM in experiment [2] (setting [4]).

For the compound `Cc1cc([C@@H](C)Nc2ccccc2C(=O)O)c2nc(N3CCC(c4ccncc4)C3)c(C)c(=O)n2c1` (stereo partly drawn) [Example 10-9, 2-(((1R)-1-(3,7-dimethyl-4-oxo-2-(3-(pyridin-4-yl)pyrrolidin-1-yl)-4H-pyrido[1,2-a]pyrimidin-9-yl)ethyl)amino)benzoic acid], the IC50 in experiment [1] (setting [3]) was 24.8 nM; in experiment [2] (setting [4]) it was over 10000 nM.

Take `Cc1cc([C@@H](C)Nc2ccccc2C(=O)O)c2nc(N3CCC(c4cc[nH]n4)CC3)c(C#N)c(=O)n2c1` [Example 11-53, (R)-2-((1-(2-(4-(1H-pyrazol-3-yl)piperidin-1-yl)-3-cyano-7-methyl-4-oxo-4H-pyrido[1,2-a]pyrimidin-9-yl)ethyl)amino)benzoic acid]: the figures for the IC50 in experiment [1] (setting [3]) and in experiment [2] (setting [4]) were 2520 nM and over 10000 nM, respectively.

As to `Cc1cc([C@@H](C)Nc2ccccc2C(=O)O)c2nc(N3CCN(c4ccccc4C#N)C[C@H]3C)c(C)c(=O)n2c1` [Example 11-83, 2-(((R)-1-(2-((R)-4-(2-cyanophenyl)-2-methylpiperazin-1-yl)-3,7-dimethyl-4-oxo-4H-pyrido[1,2-a]pyrimidin-9-yl)ethyl)amino)benzoic acid], the values for the IC50 in experiment [1] (setting [3]) and in experiment [2] (setting [4]) were 157 nM and over 10000 nM, respectively.

In the case of `Cc1cc([C@@H](C)Nc2ccccc2C(=O)O)c2nc(-c3cnn(-c4ccc(C#N)cc4)c3)cc(=O)n2c1` [Example 11-240, (R)-2-((1-(2-(1-(4-cyanophenyl)-1H-pyrazol-4-yl)-7-methyl-4-oxo-4H-pyrido[1,2-a]pyrimidin-9-yl)ethyl)amino)benzoic acid], the values for the IC50 in experiment [1] (setting [3]) and in experiment [2] (setting [4]) were 573 nM and 3230 nM, respectively.

With `Cc1cc([C@@H](C)Nc2ccccc2C(=O)O)c2nc(N3C4CCC3CC(c3ccnn3C)C4)c(C)c(=O)n2c1` (stereo partly drawn) [Example 10-2, 2-(((1R)-1-(3,7-dimethyl-2-(3-(1-methyl-1H-pyrazol-5-yl)-8-azabicyclo[3.2.1]octan-8-yl)-4-oxo-4H-pyrido[1,2-a]pyrimidin-9-yl)ethyl)amino)benzoic acid], the concentration for half-maximal inhibition (IC50) in experiment [1] (Homo sapiens, T47D, 72 h, read-out: T47D (H1047R mutant) Viability IC50 (nM)) is 4.72 nM; in experiment [2] (read-out: SKBR3 (WT) Viability IC50 (nM)) it was over 10000 nM.

As for `Cc1cc([C@@H](C)Nc2ccccc2C(=O)O)c2nc(N3CC4C5CCC(CC5)C4C3)c(C)c(=O)n2c1` (stereo partly drawn) [Example 10-133, 2-(((1R)-1-(3,7-dimethyl-2-(octahydro-2H-4,7-ethanoisoindol-2-yl)-4-oxo-4H-pyrido[1,2-a]pyrimidin-9-yl)ethyl)amino)benzoic acid], the results for the concentration for half-maximal inhibition (IC50) in experiment [1] (setting [3]) and in experiment [2] (setting [4]) were 55.4 nM and over 10000 nM, respectively.

As to `Cc1cc([C@@H](C)Nc2ccccc2C(=O)O)c2nc(N3CC[C@@H]3C)c(C)c(=O)n2c1` [Example 11-101, 2-(((R)-1-(3,7-dimethyl-2-((S)-2-methylazetidin-1-yl)-4-oxo-4H-pyrido[1,2-a]pyrimidin-9-yl)ethyl)amino)benzoic acid], the IC50 is 180 nM in experiment [1] (setting [3]) and over 10000 nM in experiment [2] (setting [4]).

As to `Cc1cc([C@@H](C)Nc2ccc(F)nc2C(=O)O)c2nc(N3CCC(F)(F)CC3)c(C)c(=O)n2c1` [Example 10-105, (R)-3-((1-(2-(4,4-difluoropiperidin-1-yl)-3,7-dimethyl-4-oxo-4H-pyrido[1,2-a]pyrimidin-9-yl)ethyl)amino)-6-fluoropicolinic acid], the values for the IC50 in experiment [1] (setting [5]) and in experiment [2] (setting [4]) were 89.4 nM and over 10000 nM, respectively.

For `Cc1cc([C@@H](C)Nc2ccccc2C(=O)O)c2nc(N3CC4CC(C3)N4c3ccc(C#N)cc3)c(C#N)c(=O)n2c1` [Example 11-134, 2-(((1R)-1-(3-cyano-2-(6-(4-cyanophenyl)-3,6-diazabicyclo[3.1.1]heptan-3-yl)-7-methyl-4-oxo-4H-pyrido[1,2-a]pyrimidin-9-yl)ethyl)amino)benzoic acid], the IC50 in experiment [1] (setting [3]) is 605 nM; in experiment [2] (setting [4]) it was over 10000 nM.

For `Cc1cc([C@@H](C)Nc2ccccc2C(=O)O)c2nc(NC[C@H]3CC3(F)F)c(C#N)c(=O)n2c1` [Example 11-156, 2-(((R)-1-(3-cyano-2-((((R)-2,2-difluorocyclopropyl)methyl)amino)-7-methyl-4-oxo-4H-pyrido[1,2-a]pyrimidin-9-yl)ethyl)amino)benzoic acid], the IC50 in experiment [1] (setting [3]) is 174 nM; in experiment [2] (setting [4]) it was over 10000 nM.

Consider `Cc1cc([C@@H](C)Nc2ccccc2C(=O)O)c2nc(N3CCc4sc(C)nc4C3)c(C#N)c(=O)n2c1` [Example 11-305, (R)-2-((1-(3-cyano-7-methyl-2-(2-methyl-6,7-dihydrothiazolo[4,5-c]pyridin-5(4H)-yl)-4-oxo-4H-pyrido[1,2-a]pyrimidin-9-yl)ethyl)amino)benzoic acid], for which the IC50 in experiment [1] (setting [3]) is 501 nM; in experiment [2] (setting [4]), over 10000 nM.

For the compound `Cc1cc([C@@H](C)Nc2ccccc2C(=O)O)c2nc(N3CC(c4ccccc4)C3)c(C)c(=O)n2c1` [Example 11-18, (R)-2-((1-(3,7-dimethyl-4-oxo-2-(3-phenylazetidin-1-yl)-4H-pyrido[1,2-a]pyrimidin-9-yl)ethyl)amino)benzoic acid], the figures for the IC50 in experiment [1] (setting [3]) and in experiment [2] (setting [4]) were 416 nM and over 10000 nM, respectively.

For the compound `Cc1cc([C@H](C)Nc2ccc(C(F)(F)F)nc2C(=O)O)c2nc(N3Cc4ccccc4C3)c(C)c(=O)n2c1` [Example 11-353, (S)-3-((1-(2-(isoindolin-2-yl)-3,7-dimethyl-4-oxo-4H-pyrido[1,2-a]pyrimidin-9-yl)ethyl)amino)-6-(trifluoromethyl) picolinic acid], the figures for the IC50 in experiment [1] (setting [3]) and in experiment [2] (setting [4]) were 6300 nM and over 10000 nM, respectively.

Turning to `Cc1cc([C@@H](C)Nc2ccccc2C(=O)O)c2nc(N3CCN(c4nc5cc(C(F)(F)F)ccc5s4)CC3)c(C)c(=O)n2c1` [Example 11-435, (R)-2-((1-(3,7-dimethyl-4-oxo-2-(4-(5-(trifluoromethyl)benzo[d]thiazol-2-yl)piperazin-1-yl)-4H-pyrido[1,2-a]pyrimidin-9-yl)ethyl)amino)benzoic acid], the results for the IC50 in experiment [1] (setting [3]) and in experiment [2] (setting [4]) were 356 nM and over 10000 nM, respectively.

The record behind these values is patent US20260078120A1, “SUBSTITUTED PYRIDOPYRIMIDINONES” (MIRATI THERAPEUTICS, INC., priority 2022, published 2026).
